Measurements reported in ChEMBL document CHEMBL4265951, “Multi-target-directed ligands for Alzheimer's disease: Discovery of chromone-based monoamine oxidase/cholinesterase inhibitors” (Eur J Med Chem, 2018).
Activity calls are given as the source filed them. The calls are words filed in the database; no cut-off is given here.

How the values were obtained:
HepG2 [1] = test: Cytotoxicity against human HepG2 cells assessed as reduction in cell viability at 0.1 to 50 uM after 48 hrs by resazurin reduction assay; type: cell-based; conditions: hepg2, 48 h
SH-SY5Y [2] = test: Cytotoxicity against human SH-SY5Y cells assessed as reduction in cell viability at 0.1 to 50 uM after 48 hrs by resazurin reduction assay; type: cell-based
[3] = target: T1, Amine oxidase [flavin-containing] B (Homo sapiens, UniProt P27338); test: Competitive inhibition of human recombinant microsomal MAOB expressed in baculovirus infected BTI-TN-5B1- 4 cells using p-tyramine as substrate assessed as decrease in H2O2 production at 500 to 1000 nM by Lineweaver-Burk plot analysis
T1 sequence (P27338 whole entry): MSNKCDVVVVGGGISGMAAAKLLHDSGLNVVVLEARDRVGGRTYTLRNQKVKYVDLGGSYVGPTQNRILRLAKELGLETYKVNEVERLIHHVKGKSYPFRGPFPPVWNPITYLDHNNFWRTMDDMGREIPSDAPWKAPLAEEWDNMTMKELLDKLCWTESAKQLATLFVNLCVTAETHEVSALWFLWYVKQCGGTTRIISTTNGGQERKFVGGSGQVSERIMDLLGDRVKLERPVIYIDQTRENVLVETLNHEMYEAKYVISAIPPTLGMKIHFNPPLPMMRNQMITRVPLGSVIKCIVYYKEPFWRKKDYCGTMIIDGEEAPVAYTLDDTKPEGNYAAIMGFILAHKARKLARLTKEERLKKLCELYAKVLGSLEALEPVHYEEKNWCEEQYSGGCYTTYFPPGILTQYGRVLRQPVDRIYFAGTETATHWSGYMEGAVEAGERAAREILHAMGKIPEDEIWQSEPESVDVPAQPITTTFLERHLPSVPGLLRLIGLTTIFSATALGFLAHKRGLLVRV

[4] = target: T1, Amine oxidase [flavin-containing] B; test: biochemical; type: cell-based
Description: Inhibition of human recombinant MAOB expressed in baculovirus infected BTI-TN-5B1- 4 cells using p-tyramine as substrate assessed as decrease in H2O2 production by amplex red-based fluorescence assay

Acetylcholinesterase [5] = target: T2, Acetylcholinesterase (Homo sapiens, UniProt P22303); test: Inhibition of human AChE using acetylthiocholine iodide as substrate pretreated for 5 mins followed by substrate addition measured after 5 mins by Ellman's method
T2 sequence (P22303 whole entry): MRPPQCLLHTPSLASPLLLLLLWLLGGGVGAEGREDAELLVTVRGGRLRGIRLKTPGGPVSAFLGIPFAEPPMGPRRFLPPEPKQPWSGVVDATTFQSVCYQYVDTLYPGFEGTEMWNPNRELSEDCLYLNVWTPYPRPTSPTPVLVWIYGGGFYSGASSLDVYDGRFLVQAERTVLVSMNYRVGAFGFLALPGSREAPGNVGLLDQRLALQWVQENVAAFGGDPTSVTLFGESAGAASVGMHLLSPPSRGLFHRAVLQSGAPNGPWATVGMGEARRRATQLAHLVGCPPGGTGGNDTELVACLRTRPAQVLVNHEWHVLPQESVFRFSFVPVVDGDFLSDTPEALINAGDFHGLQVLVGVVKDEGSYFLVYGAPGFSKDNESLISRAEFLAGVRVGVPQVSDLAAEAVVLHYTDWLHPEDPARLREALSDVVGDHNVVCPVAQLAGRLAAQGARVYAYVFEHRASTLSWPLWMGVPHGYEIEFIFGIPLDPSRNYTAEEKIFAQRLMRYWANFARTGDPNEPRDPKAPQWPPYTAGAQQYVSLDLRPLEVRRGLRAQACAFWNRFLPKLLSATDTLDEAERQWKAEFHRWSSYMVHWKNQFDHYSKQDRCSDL

Cholinesterase [6] = target: T3, Cholinesterase (Homo sapiens, UniProt P06276); test: Inhibition of human serum BuChE using butyrylthiocholine as substrate pretreated for 5 mins followed by substrate addition measured after 5 mins by Ellman's method
T3 sequence (P06276 whole entry): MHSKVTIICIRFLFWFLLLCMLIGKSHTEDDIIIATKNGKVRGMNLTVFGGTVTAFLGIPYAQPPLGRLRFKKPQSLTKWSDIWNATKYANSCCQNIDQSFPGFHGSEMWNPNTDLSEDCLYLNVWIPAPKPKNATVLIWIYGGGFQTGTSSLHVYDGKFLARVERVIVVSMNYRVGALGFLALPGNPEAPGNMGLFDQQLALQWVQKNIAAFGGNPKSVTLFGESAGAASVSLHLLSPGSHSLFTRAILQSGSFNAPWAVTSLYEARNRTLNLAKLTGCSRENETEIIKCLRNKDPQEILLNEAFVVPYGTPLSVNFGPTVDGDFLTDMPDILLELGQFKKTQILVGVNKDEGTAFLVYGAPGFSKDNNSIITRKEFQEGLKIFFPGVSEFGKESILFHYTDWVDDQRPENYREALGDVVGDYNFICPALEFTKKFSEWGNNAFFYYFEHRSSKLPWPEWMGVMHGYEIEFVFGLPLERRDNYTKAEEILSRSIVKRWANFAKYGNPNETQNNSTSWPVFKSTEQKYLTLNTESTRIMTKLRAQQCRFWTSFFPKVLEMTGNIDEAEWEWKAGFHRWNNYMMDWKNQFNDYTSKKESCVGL

Beta-secretase 1 = Beta-secretase 1 (Homo sapiens, UniProt P56817); test: Inhibition of human BACE1 using rhodamine-EVNLDAEFK-quencher as substrate after 60 mins by FRET assay
Sequence of Beta-secretase 1 (P56817 whole entry): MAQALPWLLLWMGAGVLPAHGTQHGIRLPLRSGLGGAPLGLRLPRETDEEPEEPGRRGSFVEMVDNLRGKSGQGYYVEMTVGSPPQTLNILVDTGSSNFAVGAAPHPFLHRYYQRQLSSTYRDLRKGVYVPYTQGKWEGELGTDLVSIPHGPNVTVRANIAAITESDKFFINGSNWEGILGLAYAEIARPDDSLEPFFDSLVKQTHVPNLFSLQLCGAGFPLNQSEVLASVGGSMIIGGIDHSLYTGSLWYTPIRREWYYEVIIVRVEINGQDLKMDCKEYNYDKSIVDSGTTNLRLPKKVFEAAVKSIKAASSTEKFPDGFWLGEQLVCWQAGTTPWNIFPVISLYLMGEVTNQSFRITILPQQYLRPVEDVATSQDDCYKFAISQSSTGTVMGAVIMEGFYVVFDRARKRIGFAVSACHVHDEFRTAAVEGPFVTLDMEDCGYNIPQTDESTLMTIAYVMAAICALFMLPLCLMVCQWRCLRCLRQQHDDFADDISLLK

SH-SY5Y [7] = test: Cytotoxicity against human SH-SY5Y cells assessed as reduction in cell viability at 0.1 to 50 uM after 48 hrs by SRB assay; type: cell-based
[8] = target: T1, Amine oxidase [flavin-containing] B; test: Reversible competitive inhibition of human recombinant microsomal MAOB expressed in baculovirus infected BTI-TN-5B1- 4 cells using p-tyramine as substrate assessed as decrease in H2O2 production by Dixon plot analysis
[9] = target: T4, Amine oxidase [flavin-containing] A (Homo sapiens, UniProt P21397); test: Inhibition of human recombinant microsomal MAOA expressed in baculovirus infected BTI-TN-5B1- 4 cells using p-tyramine as substrate assessed as decrease in H2O2 production at 10 uM by amplex red-based fluorescence assay
T4 sequence (P21397 whole entry): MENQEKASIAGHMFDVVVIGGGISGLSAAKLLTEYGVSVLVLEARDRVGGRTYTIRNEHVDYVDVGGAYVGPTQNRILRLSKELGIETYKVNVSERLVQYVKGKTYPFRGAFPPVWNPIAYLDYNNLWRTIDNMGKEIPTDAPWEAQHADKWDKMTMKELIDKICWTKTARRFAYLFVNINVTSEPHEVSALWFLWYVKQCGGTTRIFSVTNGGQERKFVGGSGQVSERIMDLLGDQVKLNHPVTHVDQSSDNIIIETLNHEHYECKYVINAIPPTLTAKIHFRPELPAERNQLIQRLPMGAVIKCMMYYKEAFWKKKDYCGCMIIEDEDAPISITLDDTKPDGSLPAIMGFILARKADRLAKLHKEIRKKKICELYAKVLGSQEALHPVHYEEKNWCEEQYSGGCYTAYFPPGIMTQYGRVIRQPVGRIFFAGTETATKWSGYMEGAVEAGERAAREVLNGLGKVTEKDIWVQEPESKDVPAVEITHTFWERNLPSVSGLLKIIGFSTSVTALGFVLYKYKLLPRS

HepG2 [10] = test: Cytotoxicity against human HepG2 cells assessed as reduction in cell viability at 0.1 to 50 uM after 48 hrs by SRB assay; type: cell-based; conditions: hepg2, 48 h
in vitro [11] = conditions: PAMPA
Description: Effective permeability of the compound at 1 mg/ml after 4 hrs by BBB-PAMPA method

SH-SY5Y [12] = test: Cytotoxicity against human SH-SY5Y cells assessed as reduction in cell viability at 25 to 50 uM after 48 hrs by resazurin reduction assay; type: cell-based
[13] = target: T4, Amine oxidase [flavin-containing] A; test: Reversible competitive inhibition of human recombinant microsomal MAOA expressed in baculovirus infected BTI-TN-5B1- 4 cells using p-tyramine as substrate assessed as decrease in H2O2 production by Dixon plot analysis
[14] = target: T4, Amine oxidase [flavin-containing] A; test: Competitive inhibition of human recombinant microsomal MAOA expressed in baculovirus infected BTI-TN-5B1- 4 cells using p-tyramine as substrate assessed as decrease in H2O2 production at 1000 to 2000 nM by Lineweaver-Burk plot analysis
[15] = Cytotoxicity against human SH-SY5Y cells assessed as cell mass at 50 uM after 48 hrs by SRB assay relative to control; type: cell-based; conditions: read-out: Activity
[16] = target: T4, Amine oxidase [flavin-containing] A; test: Reversible inhibition of human recombinant microsomal MAOA expressed in baculovirus infected BTI-TN-5B1- 4 cells using p-tyramine as substrate assessed as decrease in H2O2 production at IC80 after 60 mins; conditions: 1 h
Acetylcholinesterase [17] = target: T2, Acetylcholinesterase; test: Mixed type inhibition of human AChE using acetylthiocholine iodide as substrate pretreated for 5 mins followed by substrate addition measured after 5 mins by Dixon plot analysis
Cholinesterase [18] = target: T3, Cholinesterase; test: Inhibition of human serum BuChE at 10 uM using butyrylthiocholine as substrate pretreated for 5 mins followed by substrate addition measured after 5 mins by Ellman's method
Acetylcholinesterase [19] = target: T2, Acetylcholinesterase; test: Mixed type inhibition of human AChE at 0.05 to 0.20 uM using acetylthiocholine iodide as substrate pretreated for 5 mins followed by substrate addition measured after 5 mins by Lineweaver burk plot analysis
[20] = target: T4, Amine oxidase [flavin-containing] A; test: biochemical
Description: Inhibition of human recombinant microsomal MAOA expressed in baculovirus infected BTI-TN-5B1- 4 cells using p-tyramine as substrate assessed as decrease in H2O2 production by amplex red-based fluorescence assay

in vitro [21] = conditions: PAMPA; remark: listed apart in the source
Description: Effective permeability of the compound at 25 ug/ml after 18 hrs by BBB-PAMPA method

[22] = target: T4, Amine oxidase [flavin-containing] A; test: Inhibition of human recombinant microsomal MAOA expressed in baculovirus infected BTI-TN-5B1- 4 cells using p-tyramine as substrate assessed as decrease in H2O2 production at 100 uM by amplex red-based fluorescence assay

Row | SMILES | Activity (HepG2 [1]) | Activity (SH-SY5Y [2]) | inhibition (INH) [3] | IC50 [4] | IC50 (Acetylcholinesterase [5]) | IC50 (Beta-secretase 1) | Activity (SH-SY5Y [7]) | Ki [8] | inhibition (INH) [9] | Activity (HepG2 [10]) | Papp at 4 h, 1 mg/ml (in vitro [11]) | inhibition (Cholinesterase [18]) | further results
1 | CN(C)CCOC(=O)/C=C/c1ccc2occ(C(=O)Nc3ccccc3)c(=O)c2c1 | Non-Toxic | Non-Toxic | Active | 0.63 µM | 3.69 µM | > 10 µM | Non-Toxic | 337 nM | Not Active | Non-Toxic | 6.4 ×10⁻⁶ cm/s |  | IC50 (Cholinesterase [6]): 4.32 µM
2 | Cc1ccc(NC(=O)c2cc(=O)c3cc(/C=C/C(=O)OCCN(C)C)ccc3o2)cc1 |  |  | Active | 3.81 µM | 0.21 µM | > 10 µM |  | 478 nM |  |  | 5.2 ×10⁻⁶ cm/s | inactive | Activity (SH-SY5Y [12]): Toxic; Ki [13]: 57 nM; inhibition (INH) [14]: Active; viability at 48 h, 50 µM [15]: 44%; inhibition (INH) [16]: Active; Ki (Acetylcholinesterase [17]): 190 nM; inhibition (Acetylcholinesterase [19]): Active; IC50 [20]: 940 nM
3 | C[C@]12CCC(=O)C=C1CC[C@@H]1[C@@H]2[C@@H](O)C[C@]2(C=O)[C@@H](C(=O)CO)CC[C@@H]12 [ALDOSTERONE] |  |  |  |  |  |  |  |  |  |  | 1 ×10⁻⁶ cm/s |  | Papp at 18 h, 25 ug/ml (in vitro [21]): 1.2 ×10⁻⁶ cm/s
4 | C[C@H](NCc1ccc(OCc2cccc(F)c2)cc1)C(N)=O [SAFINAMIDE] |  |  |  |  |  |  |  |  |  |  |  |  | inhibition (INH) [22]: Not Active
5 | O=C(O)/C=C/c1ccc2occ(C(=O)Nc3ccccc3)c(=O)c2c1 | Non-Toxic | Non-Toxic |  | 4.66 µM | 9.25 µM | > 10 µM | Non-Toxic |  | Not Active | Non-Toxic | 1.2 ×10⁻⁶ cm/s | inactive | 
